Measured values: paper PMC7263517 (bioRxiv, 2020)
pIC50: −log10 of the molar value. Where two headings read alike, the source gives them in different places.

Assays:
[1] = molecular target: SARS-CoV-2 nsp7/8/12 complex (Severe acute respiratory syndrome coronavirus 2, UniProt P0DTD1); experiment: SARS-CoV-2 nsp7/8/12 in vitro activity assay; format: biochemical
[2] = molecular target: A/WSN/33 (H1N1) influenza virus FluPol (Influenza A virus, UniProt P03430); experiment: biochemical; format: biochemical, influenza A/WSN/33 (H1N1) virus
FluPol = FluPol (Influenza A virus, UniProt P03430); format: biochemical, influenza A/WSN/33 (H1N1) virus
influenza virus = conditions: read-out: EC90 influenza virus growth in cell culture; cited from earlier work

Chain of A/WSN/33 (H1N1) influenza virus FluPol (P03430 whole entry, looked up): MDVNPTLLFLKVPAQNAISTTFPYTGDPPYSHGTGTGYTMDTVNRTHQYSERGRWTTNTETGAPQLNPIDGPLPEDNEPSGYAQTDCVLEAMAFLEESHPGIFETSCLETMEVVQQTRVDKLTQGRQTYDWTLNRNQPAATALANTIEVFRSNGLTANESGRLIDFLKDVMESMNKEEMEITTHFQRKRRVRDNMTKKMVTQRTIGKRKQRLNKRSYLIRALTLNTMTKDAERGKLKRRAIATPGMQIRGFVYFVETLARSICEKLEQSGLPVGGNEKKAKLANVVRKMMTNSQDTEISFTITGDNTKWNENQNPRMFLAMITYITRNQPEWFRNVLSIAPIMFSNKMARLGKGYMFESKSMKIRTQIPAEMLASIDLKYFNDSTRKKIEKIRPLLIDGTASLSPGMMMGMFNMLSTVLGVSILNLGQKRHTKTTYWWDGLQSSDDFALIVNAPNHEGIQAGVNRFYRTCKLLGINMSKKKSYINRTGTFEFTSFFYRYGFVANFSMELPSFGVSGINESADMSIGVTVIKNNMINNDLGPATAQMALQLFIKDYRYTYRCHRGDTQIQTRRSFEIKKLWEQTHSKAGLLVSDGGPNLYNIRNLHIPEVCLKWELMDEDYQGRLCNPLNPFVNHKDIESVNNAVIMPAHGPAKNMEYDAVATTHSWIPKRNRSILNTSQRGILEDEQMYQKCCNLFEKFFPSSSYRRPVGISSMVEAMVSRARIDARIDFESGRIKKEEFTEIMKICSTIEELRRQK
Chain of FluPol (P03430 whole entry, looked up): as above

C[n+]1ccc(C(=O)NCc2ccccc2)cc1 [FAV00A, N-methyl-4-benzylcarbamidopyridinium iodide, reference compound]
pIC50 [1]: 1.39 | FOLD CHANGE IC50 [2]: 1 | pIC50 [2]: 1.33 | inhibition of FluPol activity by cellular extract (FluPol): strong, concentration-dependent inhibition

NC(=O)c1nc(F)cn([C@@H]2O[C@H](COP(=O)(O)OP(=O)(O)OP(=O)(O)O)[C@@H](O)[C@H]2O)c1=O [T-705 triphosphate, 6-fluoro-3,4-dihydro-4-[5-O-(hydroxy{[hydroxy(phosphonooxy)phosphinyl]oxy}phosphinyl)-β-d-ribofuranosyl]-3-oxo-2-pyrazinecarboxamide, reference compound]
IC50 SARS-CoV-2 nsp7/8/12 RNA synthesis activity ([1]; in vitro, 30 mins, VR17-04 value estimated from the dose-response curve): non-inhibitory | pIC50 [2]: 4.96

C[n+]1ccc(C(=O)NCc2ccccc2O)cc1 [VR16-01, 4-{[(2-hydroxyphenyl)methyl]carbamoyl}-1-methylpyridin-1-ium]
FOLD CHANGE IC50 [2]: 0.6 | pIC50 ([2]; read-out: FLUPOL IC50): 1.11

O=C(NCc1ccccc1O)c1ccncc1 [VR18-01, N-[(2-hydrophenyl)methyl]pyridine-4-carboxamide]
FOLD CHANGE IC50 [2]: 1.4 | pIC50 ([2]; read-out: FLUPOL IC50): 1.47

O=C(NCc1cccc(O)c1)c1ccncc1 [VR18-02, N-[(3-hydrophenyl)methyl]pyridine-4-carboxamide]
FOLD CHANGE IC50 [2]: 0.5 | pIC50 ([2]; read-out: FLUPOL IC50): 1.02

O=C(NCc1ccc(O)cc1)c1ccncc1 [VR18-03, N-[(4-hydrophenyl)methyl]pyridine-4-carboxamide]
FOLD CHANGE IC50 [2]: 0.6 | pIC50 ([2]; read-out: FLUPOL IC50): 1.13

O=C(NCc1ccccc1)c1cc[nH]c(=O)c1 [VR18-04, N-benzyl-2-oxo-1,2-dihydropyridine-4-carboxamide]
FOLD CHANGE IC50 [2]: 1.3 | pIC50 [2]: 1.45

C[n+]1ccc(C(=O)NCc2ccccc2)cc1 [enisamium, 4-(benzylcarbamoyl)-1-methylpyridinium]
EC90 (influenza virus): 0.157 to 0.439 mM
